Holding throughout (type): physicochemical
Data set [1] in a line: Normalized emission spectra of D1 (L) and complexes in dry acetonitrile (FIG. 22). To be noted: D1 0.00013 M, metal ion 0.00012 M. As for the experimental part: The concentration of D1 was 0.00013 M, and the metal ion concentration was 0.00012 M. The metal ions are added as perchlorates or acetates. The y-axis is luminescence intensity, and the x-axis is wavelength in nanometers. The free ligand L had maximum emission at 470 nm. The L+Ca(II) complex had maximum emission at 526 nm. The L+Zn(II) complex had maximum emission at 581 nm. The L+trifluoroacetate complex had maximum emission at 592 nm. The L+H^+ complex had maximum emission at 691 nm. The L+H^+ complex was formed using aluminum chloride dissolved in TFA and diluted with dry MeCN, and it is likely that HCl was produced in situ, and that this is protonating the ligand.

The nature of data set [2]: Fluorescence color of D1 in acetonitrile solution with and without metal ions under UV 365 nm (FIG. 1). To be noted: D1 0.004 M. As for the experimental part: FIG. 1 is a set of pictures showing the change in color of derivative compound D1 in the absence and presence of various metal ions (Mg^2+, Sr^2+, Ca^2+, Cd^2+, Zn^2+, H^+) in solution. The solvent was acetonitrile, the concentration of D1 was 0.004 M, and the metal ion concentration was 0.04 M. The metal ions are added as perchlorates or acetates. The solutions were exposed to UV light having an excitation wavelength of 365 nm.
With no metal, the D1 solution was blue. With Mg^2+, the solution was a blue-green color. With Sr^2+, the solution was a green-blue color. With Ca^2+, the solution was a green color. With Cd^2+, the solution was an olive green color. With Zn^2+, the solution was a yellow-orange color. With H^+, the solution was a red color.

The nature of data set [3]: Fluorescence color in the solid state with and without metal ions or acids under UV 365 nm (FIGS. 2, 5, 6, 7, 24, 25). The text has this: FIG. 2 is a set of pictures showing the change in color of derivative compound D1 in the absence and presence of various metal ions (Ca^2+, Sr^2+, Cd^2+, Zn^2+, Ba^2+, Ha^+, Hb^+, Ni^2+) in the solid state. The sample labeled Ha^+ was isolated from a KOH/ethanol solution after treatment with trifluoroacetic acid (TFA). The sample labeled Hb^+ was obtained by using aluminum perchlorate, which produced acid (H^+) due to an unexpected hydrolysis reaction with the medium.
FIG. 5 is a set of pictures showing the change in color of derivative compound D1 in the absence and presence of various metal ions or acids (Ca^2+, Zn^2+, H^+, Pb^2+) in the solid state, both under ordinary light and under UV light (365 nm). Perchlorate salts were used. When the aluminum salt was used, an unexpected hydrolysis produced acid (H^+) which protonated the ligand.
FIG. 6 is a set of pictures showing the change in color of derivative compound D1 in the absence and presence of various metal ions or acids (H^+, Co^2+, Ni^2+, Cu^2+) in the solid state, both under ordinary light and under UV light (365 nm). Perchlorate salts were used.
FIG. 7 is a set of pictures showing the change in color of derivative compound D1 in the absence and presence of various metal ions or acids (AgNO3, Hg^2+, Pb^2+) and of the free compound D7 (no metal ion) in the solid state, both under ordinary light and under UV light (365 nm).
FIG. 24 is a set of pictures showing the change in color of complexes of D1 with perchlorate salts of various metal ions (Ca^2+, Sr^2+, Cd^2+) in the solid state, both under ordinary light and under UV light (365 nm).
FIG. 25 is a set of pictures showing the change in color of complexes of D1 with salts of various metal ions (Zn^2+, Ba^2+, Ha^+, Hb^+) in the solid state, both under ordinary light and under UV light (365 nm). The zinc and barium are perchlorate salts. The complex labeled “From KOH/EtOH/TFA” was obtained from a solution of KOH and ethanol upon addition of TFA. It is unclear what is causing the orange color, but it is most likely acid, therefore the label “Ha^+”. The HClO4 complex was obtained by using aluminum perchlorate, which produced acid (H^+) that protonated the ligand.
With no metal, the D1 powder was blue. With Ca^2+, the powder was a blue-green color. With Sr^2+, the powder was a green color. With Cd^2+, the powder was a yellow-green color. With Zn^2+, the powder was a yellow color. With Ba^2+, the powder was a dark yellow color. […] Powder isolated from solutions containing AlCl3 or Al(ClO4)3 was a red color. […] With Ni^2+, the powder was black (i.e. fluorescence was quenched).
FIG. 5 is a set of pictures showing fluorescence of D1 in the solid state, under ordinary light (top row) and under UV light (365 nm) (bottom row). In column A, the free ligand sample (i.e. no metal ions) is blue. In column B with Ca(II), the powder is green. In column C with Zn(II), the powder is yellow. In column D with Al(III), the powder is red. Again, this appears to be due to acid (H^+). In column E with Pb(II), the powder is non-fluorescent.
FIG. 6 is a set of pictures showing fluorescence of D1 in the solid state, under ordinary light (top row) and under UV light (365 nm) (bottom row). In the first column ligand treated with La(III) perchlorate produced a powder that fluoresces red. […] In the second column with Co(II), the powder is non-fluorescent. In the third column with Ni(II), the powder is non-fluorescent. In the fourth column with Cu(II), the powder is non-fluorescent.
FIG. 7 is a set of pictures showing fluorescence of D1 in the solid state, under ordinary light (top row) and under UV light (365 nm) (bottom row). In the first column with silver nitrate (AgNO3), the powder is non-fluorescent. […] In the third column with Pb(II), the powder is non-fluorescent. In the fourth column, the free compound D7 is shown, and is non-fluorescent. […]

Data set [4] can be described thus: Fluorescence color of D1 in acetonitrile solution with one equivalent of metal perchlorate under UV 365 nm (FIG. 4). The method, then:
FIG. 4 is a set of pictures showing the change in color of derivative compound D1 in the absence and presence of various metal ions (Ca^2+, Zn^2+, H^+, Pb^2+) in solution (perchlorate salts), both under ordinary light and under UV light (365 nm). The solvent was acetonitrile, the concentration of D1 was 0.0001 M, and one equivalent of the metal perchlorate salt was added. For H^+, an aluminum perchlorate salt was used, which produced acid (H^+) that protonated the ligand.
Under UV light, the D1 solution alone is blue. With Ca(II), the solution is green. With Zn(II), the solution is yellow-orange. With Al(III) perchlorate, the solution is red. This red color resulted from an unexpected hydrolysis reaction that produced acid (H^+). The protonated ligand provided the red color. With Pb(II), the solution is black, i.e. the blue color that would other be visible has been quenched.

Data set [5] in a line: Normalized emission spectra of D1 (L) and complexes in the solid state (FIG. 23). The text has this: The y-axis is luminescence intensity, and the x-axis is wavelength in nanometers. The free ligand L had maximum emission at 457 nm. The L+Ca complex had maximum emission at 519 nm. The L+Zn complex had maximum emission at 556 nm. Al/H^+ complex had maximum emission at 651 nm. This latter complex is a protonated ligand obtained by using aluminum perchlorate, which produced acid in situ.
The curve labeled Al/H+(N) was obtained by using protonated ligand obtained by treating the ligand with aluminum perchlorate.

Data set [6] in a line: Fluorescent properties of L4 in water/chloroform two-layer vials with metal ions and acid (FIG. 8). The text has this:
FIG. 8 is a set of pictures showing the fluorescent properties of compound L4 in two different solvents (water and chloroform) in the presence of different metal ions o and acid (NaCl, CaCl2), HCl) under ordinary light and under UV light (365 nm). The concentration of L4 was 0.00032 M. Vial #2 used aqueous sodium chloride, Vial #3 included aqueous calcium chloride, and Vial #4 included dilute hydrochloric acid.
FIG. 8 is a set of pictures showing the fluorescent properties of compound L4 in two different solvents (water and chloroform) under ordinary light and under UV light (365 nm). Vial #1 contains only L4, Vial #2 contains sodium chloride, Vial #3 contains calcium chloride, and Vial #4 contains hydrochloric acid. The two layers in each vial were mixed, then allowed to separate and observed. […] There is no reaction to sodium in Vial #2. […] It is believed that this migration will only occur with a metal ion of the proper size and sufficiently high ionic charge. […] Interference from acid is, therefore, not expected to cause false positive results.

Entries after “also recorded” stand apart in the source; their conditions may differ.

Consider `COc1cccc2cc3c(nc12)-c1nc2c(OC)cccc2cc1CC3` [Compound D1, 8,8′-Dimethoxy-3,3′-dimethylene-2,2′-biquinoline], for which the values for the maximum emission in data set [1] and in data set [5] were 470 nm and 457 nm, respectively. Also, the color of solution entry in data set [2] (Ca^2+ 0.04 M) is on record as “green”; in data set [2] (Cd^2+ 0.04 M) it was “olive green”; in data set [2] (H^+), “red”; in data set [2] (Mg^2+ 0.04 M), “blue-green”; in data set [2] (Sr^2+ 0.04 M), “green-blue”; in data set [2] (Zn^2+ 0.04 M) it was “yellow-orange”. In data set [2] (no metal), the color of solution result is listed as “blue”. Further, the fluorescence of powder entry in data set [3] (free compound (no metal ions)) is recorded as “blue”; in data set [3] (from AlCl3 or Al(ClO4)3 (acid H^+, protonated ligand; Hb^+/HClO4)) it was “red”; in data set [3] (isolated from ethanolic KOH treated with TFA (Ha^+)), “orange”; in data set [3] (treated with La(III) perchlorate (acid H^+, protonated ligand)), “red”; in data set [3] (with Ca^2+) it was “blue-green”; in data set [3] (with Cd^2+), “yellow-green”. The fluorescence of powder result in data set [3] (with Co(II)) is listed as “non-fluorescent”; in data set [3] (with Cu(II)), “non-fluorescent”; in data set [3] (with Hg(II)), “barely fluoresces”; in data set [3] (with Ni^2+) it was “black; also recorded: non-fluorescent”; in data set [3] (with Pb(II)) it was “non-fluorescent”; in data set [3] (with Sr^2+), “green”. Moreover, the fluorescence of powder entry is recorded as “yellow” in data set [3] (with Zn^2+) and “non-fluorescent” in data set [3] (with silver nitrate (AgNO3)). Further, the “color of solution under UV light” value is on record as “blue” in data set [4] (D1 0.0001 M alone); “red” in data set [4] (D1 0.0001 M, Al(III) perchlorate (produced acid H^+, protonated ligand)); “green” in data set [4] (D1 0.0001 M, one equivalent Ca(II) perchlorate); “black” in data set [4] (D1 0.0001 M, one equivalent Pb(II) perchlorate); “yellow-orange” in data set [4] (D1 0.0001 M, one equivalent Zn(II) perchlorate).

For `CCCCc1c2c(nc3c1CCc1cc4cccc(OCC(=O)OC)c4nc1-3)-c1nc3c(OCC(=O)OC)cccc3cc1CC2` [Compound L4, 8-butyl-1,15-bis(methoxycarbonylmethoxy)-diquinolino[2,3-c:3′,2′-h]-6,7,9,10-tetrahydroacridine], the “layer in which the compound is present” value in data set [6] (Vial #1, only L4 0.00032 M) is given as “chloroform layer”. The response to sodium result in data set [6] (Vial #2, aqueous sodium chloride, L4 0.00032 M) is reported as “no reaction”. Also, the “migration of the complex between layers” value in data set [6] (Vial #3, aqueous calcium chloride) is “migrated to the water layer”. The fluorescent response result in data set [6] (Vial #3, aqueous calcium chloride (Ca^2+), UV 365 nm) was “intense blue”. In addition, in data set [6] (Vial #4, dilute hydrochloric acid, UV 365 nm), the fluorescence result is “green”.

(Values after US11168249B1, “Luminescent polydentate polycyclic compounds for metal ions” (priority 2012, dated 2021).)
